Measured values from patent publication US9649324B2, “Use of tylvalosin as antiviral agent” (ECO ANIMAL HEALTH LIMITED, priority 2006, dated 2017).

How the values were obtained:
LLC-PK1 cells = assay: Intracellular accumulation in pig kidney epithelial cells; type: in vitro ADME; conditions: LLC-PK1, 10 μg/mL
Method: LLC-PKI cells in 6 cm^2 plastic tissue culture dishes were incubated with 10 μg/mL of the different macrolides. Cells and medium were harvested as described above at 30, 75 and 120 min.
(§1) All the supernatant and cell samples were transported frozen (at approximately −20° C.) to York Bioanalytical Solutions (York, England) for analysis. Briefly, 0.25 g of buffer (RPMI medium containing 10% FCS) was weighed into a polypropylene tube. A 50 μL volume of the appropriate working solution was added to the quality control (QC) samples. Methanol (50 μL) was added to each blank sample used for preparation of calibration standards, recovery samples and reagent blanks. A 2.5 mL volume of 0.1 M phosphate buffer was added to each sample, vortex mixed for approximately 1 min and then centrifuged at 3220×g for 10 min at 4° C.
(§2) For the liquid-liquid clean-up phase, an aliquot (100 μL) of the supernatant was transferred to a polypropylene tube. The pH was adjusted to pH 8-8.5 by the addition of 0.1 M NaOH, and vortex mixed. Ethyl acetate (5 mL) was added and after capping, the whole mixture was shaken for 10 min and then centrifuged at 3220×g for 10 min at 4° C.
(§3) Ammonium acetate (20 mM; pH native)—formic acid, 1000:3, v/v (100 μL) was added to each well in a 2 mL polypropylene collection plate. An aliquot of the ethyl acetate mixture (100 μL) was transferred to the polypropylene collection plate and evaporated under nitrogen (40° C.) until the ethyl acetate was fully evaporated whilst the ammonium acetate remained. Methanol (100 μL) was added to each well, excluding the calibration standards.
(§4) To each well containing a calibration standard, 100 μL of the appropriate calibration working solution was added. Samples were then vortex mixed for at least 10 min and submitted for liquid chromatography with tandem mass spectrometric analysis. The method stated was applicable to the samples of media (and the calibration standards and quality control samples).
(§5) For the cells, the sample tubes were weighed, and 100 μL of acetonitrile was added. The samples were vortex mixed for 10 sec, then centrifuged at 10285×g at 4° C. for 5 min. The sample was transferred to a polypropylene tube. The original sample tube was washed with 0.1 M phosphate buffer (1 mL). This was transferred to the polypropylene tube. A second wash of 1 mL was made, then a final wash of 0.5 mL. The polypropylene tube was now at the same stage as the end of the liquid extraction, but with the cells present rather than media. This was then taken through the sample preparation as described above. The original sample tubes were allowed to dry (i.e. any remaining solvent evaporated off) and were then reweighed to determine the weight of cells in the sample, to allow the concentration per gram of cells to be determined.

[1] = tested on: chicken white blood cells; assay: Intracellular accumulation in chicken white blood cells; type: in vitro ADME; conditions: chicken white blood cells
Method: Pig blood was collected in Heparin-coated BD vacutainers (6). 20 mL of blood and 30 mL of phosphate buffered saline (PBS) were mixed in a 50 mL conical centrifuge tube. This was repeated in order to obtain 3 such tubes. The mixtures were centrifuged for 10 min at 2050×g. The white blood cells, together with some red blood cells below, were harvested into a 50 mL conical centrifuge tube. PBS was added to about 50 mL. A 63% solution of Percoll was made as follows: 6.3 mL Percoll (Sigma), 1.0 mL 1.5 M NaCl, 2.7 mL H2O. 10 mL of 63% Percoll was added to each of two 50 mL conical centrifuge tubes. 25 mL of the resuspended white blood cells were carefully layered on top of the each of the Percoll solutions. A sharp interface was produced. The material was centrifuged at 3000×g for 10 min. […] The white blood cells were harvested in PBS (50 mL) and centrifuged at 500×g for 10 min. The cell pellet was resuspended in medium (Glasgow minimum essential medium containing penicillin and streptomycin). A viable cell count was made using trypan blue. The same method used for isolation of pig WBCs was used for the chicken WBCs, with the exception that heparin (100 I.U./mL) was prepared and mixed with an equal volume of chicken whole blood.
All tubes were placed on a rotary mixing machine, at 37° C. Supernatant and cell samples were harvested at the times described in the figure legends. Duplicate samples were used for each antibiotic for each time point.
as §1, §2, §3, §4
as §5, with “The original sample tubes were allowed to dry (i.e. any remaining solvent evaporated off) and were then reweighed to determine the weight of cells in the sample, to allow the concentration per gram of cells to be determined.” left out

[2] = tested on: equine influenza strain Miami; type: cell-based; conditions: 1 μg/ml, 4 h pretreatment, moi 10, fixed 4 h post infection
[3] = tested on: equine arteritis virus (EAV); assay: Effect on equine arteritis virus infection (Example 6); type: cell-based
Method: Experiments were carried out to determine whether tylvalosin has an effect on equine arteritis virus (EAV).

PRRSV = assay: Inhibitors of PRRSV infection added at various times pre and post infection (Example 7); type: cell-based
influenza strain Udorn = assay: Influenza virus time course in MDCK cells, immunofluorescence and plaque assay (Example 12); type: cell-based
endosomal pH = assay: Acridine orange assay of endosomal pH (Example 13); type: cell-based
Method: Acridine orange is a dye that causes cells to fluoresce green with the exception of acidic compartments (such as endosomes) that appear red—due to the protonation of the dye and quenching of the green fluorescence. A substance that raises the endosomal pH will prevent the appearance of the red fluorescence. The effect of Aivlosin® and other macrolide antibiotics on a the staining of endosomes by acridine orange in number of cells lines was determined (see FIG. 19). An area of cells grown on a glass coverslip is first selected using a DAPI stain. […] This selection procedure helps reduce any bias in the results. The green and red filters on the epifluorescence microscope were then used to examine about 20 cells. The number of red spots (endosome vesicles) in was determined. The average number of Acridine orange stained endosomes was counted.

[4] = cited from earlier work
[5] = previous study (Tsuchiya et al., 1981); cited from earlier work
[6] = tested on: VR2332 (US strain of PRRSV); assay: VR2332 (US strain of PRRSV) entry assay in MA104 cells (Example 10); conditions: 4 h pretreatment, moi 10, overnight
[7] = added 2 or 4 hours after infection

Compound: CCC1OC(=O)CC(OC(C)=O)C(C)C(OC2OC(C)C(OC3CC(C)(O)C(OC(=O)CC(C)C)C(C)O3)C(N(C)C)C2O)C(CC=O)CC(C)C(=O)C=CC(C)=CC1COC1OC(C)C(O)C(OC)C1OC (centres unmarked) [tylvalosin, 3-O acetyl-4″-O-isovaleryltylosin]
- average intracellular concentration (LLC-PK1 cells; 75 min): 53.95 μg/mg cells
- intracellular:extracellular ratio (LLC-PK1 cells; 120 min): 8.9
- average intracellular concentration ([1]; 10 μg/mL, 15 min): 89.8 μg/mg cells
- intracellular concentration ([1]; 10 μg/mL, 60 min): 122.9 μg/mg cells
- intracellular:extracellular ratio ([1]; 60 min): 19 fold
- inhibition of infection of MDCK cells [2]: 92%
- EAV infection [3]: not blocked
- PRRSV spread (PRRSV; [7]): inhibited
- initial PRRSV infection (initial site of infection) (PRRSV; [7]): inhibited
- initial PRRSV infection (PRRSV; added 4 hours before infection): inhibited
- initial PRRSV infection (PRRSV; added at the time of infection): inhibited
- influenza strain Udorn infection over the 24 hour period (immunofluorescence and plaque assay) (influenza strain Udorn): inhibited
- effect on raising the pH in the endosomes (endosomal pH; acridine orange stained endosomes, any cell line): raises the pH in endosomes
- effect on endosomal pH (endosomal pH; epithelial cells): greater effects than tilmicosin
- pKa [4]: 7.6
- lipophilicity [5]: more lipophilic than either tylosin or 3AT
- inhibition of VR2332 infection [6]: sensitive
